Measured values from patent US4772586A, “Novel derivatives of arginine vasopressin antagonists” (Medical College of Ohio, priority 1986, dated 1988).
*1 amine or outer side, *2 acyl side, *3 side chain or, on linkers, in order; H or OH if unused. Where a SMILES comes first, the peptide text is derived from it. Bridges are numbered along the chain shown (N, C = ends). [ ]: non-standard residue; d: D form. The star is where a group is joined. Ethylenediamine = C(CN[*:2])N[*:1]; X1 = O=C(CC1(S[*:2])CCCCC1)[*:1]; NH(CH2)4NH2 = NCCCCN*

Assays:
[1] = system: antidiuretic response to arginine vasopressin; assay: Antagonism of the antidiuretic response to arginine vasopressin (Anti-ADH); format: in vivo, rats; conditions: for Anti-ADH Potency pA2: estimated in vivo pA2; for Anti-ADH pA2: Table 1, estimated in vivo pA2 = negative log of effective dose divided by volume of distribution (67 ml/kg)
How it was run: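 Compounds were given intravenously to ethanol-anesthetized, water-loaded rats, followed by arginine vasopressin challenge. Effective dose (nmol/kg) is the antagonist dose that reduces the response to 2x units of agonist, given 20 min later, to the response to 1x units. pA2 is the negative log of effective dose divided by an estimated 67 ml/kg distribution volume.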

[2] = system: vasopressor response to arginine vasopressin; assay: Antagonism to the vasopressor response (Anti-VP); format: in vivo; conditions: estimated in vivo pA2; for Anti-VP pA2: Table 1
How it was run: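 In vivo antagonism of arginine vasopressin pressor response per Dyckes et al. Effective dose (nmol/kg) is the antagonist dose making the response to 2x agonist units, injected 20 min later, equal that to 1x units. pA2 is the negative log of effective dose divided by 67 ml/kg distribution volume.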

Row | Structure (SMILES) | Anti-ADH pA2 [1] | Anti-VP pA2 [2] | other results
1 | CC[C@H](C)[C@@H]1NC(=O)[C@H](Cc2ccccc2)NC(=O)[C@@H](Cc2ccccc2)NC(=O)CC2(CCCCC2)SSC[C@@H](C(=O)N2CCC[C@H]2C(=O)N[C@@H](CCCNC(=N)N)C(=O)N[C@@H](CCCNC(=N)N)C(N)=O)NC(=O)[C@H](CC(N)=O)NC1=O [Arg(NH2), [1-(beta-mercapto-beta,beta-cyclopentamethylenepropionic acid), 2-D-phenylalanine, 4-isoleucine, 9-argininamide]-arginine vasopressin] ([dF]FINCPRR-NH2; linker N-5 via X1) |  |  | Anti-ADH Potency pA2 ([1]; Table 2): 8.05 ± 0.11; Anti-VP Potency pA2 ([2]; Table 2): 8.11 ± 0.07
2 | CC(C)[C@@H]1NC(=O)[C@H](Cc2ccccc2)NC(=O)[C@@H](Cc2ccccc2)NC(=O)CC2(CCCCC2)SSC[C@@H](C(=O)N2CCC[C@H]2C(=O)N[C@@H](CCCNC(=N)N)C(=O)NCC(N)=O)NC(=O)[C@H](CC(N)=O)NC1=O [d(CH2) 5 [D-Phe^2]VAVP, [1-(beta-mercapto-beta,beta-cyclopentamethylenepropionic acid), 2-D-phenylalanine, 4-valine]-arginine vasopressin, reference compound] ([dF]FVNCPRG-NH2; linker N-5 via X1) | 8.06 ± 0.09 | 8.06 ± 0.03 | 
3 | COc1ccc(C[C@@H]2NC(=O)CC3(CCCCC3)SSC[C@@H](C(=O)N3CCC[C@H]3C(=O)N[C@@H](CCCNC(=N)N)C(N)=O)NC(=O)[C@H](CC(N)=O)NC(=O)[C@H](CCC(N)=O)NC(=O)[C@H](Cc3ccccc3)NC2=O)cc1 [desGly^9 d(CH2)5 [Tyr(Me)^2]AVP, [1-(beta-mercapto-beta,beta-cyclopentamethylenepropionic acid), 2-(O-methyl)tyrosine, 9-desglycine]-arginine vasopressin] (Y(Me)FQNCPR-NH2; linker N-5 via X1) | ~ 6.1 | 8.44 ± 0.10 | 
4 | CC[C@H](C)[C@@H]1NC(=O)[C@H](Cc2ccccc2)NC(=O)[C@@H](Cc2ccccc2)NC(=O)CC2(CCCCC2)SSC[C@@H](C(=O)N2CCC[C@H]2C(=O)N[C@@H](CCCNC(=N)N)C(N)=O)NC(=O)[C@H](CC(N)=O)NC1=O [desGly^9 d(CH2)5 [D-Phe^2,Ile^ 4]AVP, [1-(beta-mercapto-beta,beta-cyclopentamethylenepropionic acid), 2-D-phenylalanine, 4-isoleucine, 9-desglycine]-arginine vasopressin] ([dF]FINCPR-NH2; linker N-5 via X1) | 8.05 ± 0.09 | 7.84 ± 0.03 | 
5 | COc1ccc(C[C@@H]2NC(=O)CC3(CCCCC3)SSC[C@@H](C(=O)N3CCC[C@H]3C(=O)N[C@@H](CCCNC(=N)N)C(=O)O)NC(=O)[C@H](CC(N)=O)NC(=O)[C@H](CCC(N)=O)NC(=O)[C@H](Cc3ccccc3)NC2=O)cc1 [desGly(NH2)^9 d(CH2)5 [Tyr(Me)^2]AVP] (Y(Me)FQNCPR-OH; linker N-5 via X1) | ~ 5.4 | 8.46 ± 0.05 | 
6 | CC[C@H](C)[C@@H]1NC(=O)[C@H](Cc2ccccc2)NC(=O)[C@@H](Cc2ccccc2)NC(=O)CC2(CCCCC2)SSC[C@@H](C(=O)N2CCC[C@H]2C(=O)N[C@@H](CCCNC(=N)N)C(=O)N[C@@H](C)C(N)=O)NC(=O)[C@H](CC(N)=O)NC1=O [Ala(NH2), [1-(beta-mercapto-beta,beta-cyclopentamethylenepropionic acid), 2-D-phenylalanine, 4-isoleucine, 9-alaninamide]-arginine vasopressin] ([dF]FINCPRA-NH2; linker N-5 via X1) |  |  | Anti-ADH Potency pA2 ([1]; Table 2): 8.38 ± 0.13; Anti-VP Potency pA2 ([2]; Table 2): 7.67 ± 0.04
7 | CC[C@H](C)[C@@H]1NC(=O)[C@H](Cc2ccccc2)NC(=O)[C@@H](Cc2ccccc2)NC(=O)CC2(CCCCC2)SSC[C@@H](C(=O)N2CCC[C@H]2C(=O)N[C@@H](CCCNC(=N)N)C(=O)NCCCCN)NC(=O)[C@H](CC(N)=O)NC1=O [[1-(beta-mercapto-beta,beta-cyclopentamethylenepropionic acid), 2-D-phenylalanine, 4-isoleucine, 8-arginine-N-(delta-amino)butylamide, 9-desglycinamide] vasopressin] ([dF]FINCPR-{NH(CH2)4NH2}; linker N-5 via X1) |  |  | Anti-ADH Potency pA2 ([1]; Table 4): 8.11 ± 0.03; Anti-VP Potency pA2 ([2]; Table 4, ^+ = mixed): 7.61 ± 0.08
8 | COc1ccc(C[C@@H]2NC(=O)CC3(CCCCC3)SSC[C@@H](C(=O)N3CCC[C@H]3C(=O)N[C@@H](CCCNC(=N)N)C(=O)NCCN)NC(=O)[C@H](CC(N)=O)NC(=O)[C@H](CCC(N)=O)NC(=O)[C@H](Cc3ccccc3)NC2=O)cc1 [[1(beta-mercapto-beta,beta-cyclopentamethylenepropionic acid), 2-(O-methyl)tyrosine, 8-arginine-N-(beta-amino)ethylamide, 9-desglycinamide] vasopressin] (Y(Me)FQNCPR-Ethylenediamine; linker N-5 via X1) |  |  | Anti-ADH Potency pA2 ([1]; Table 4): ~ 6.3; Anti-VP Potency pA2 ([2]; Table 4, ^+ = mixed): 8.75 ± 0.06
9 | CC[C@H](C)[C@@H]1NC(=O)[C@H](Cc2ccccc2)NC(=O)[C@@H](Cc2ccccc2)NC(=O)CC2(CCCCC2)SSC[C@@H](C(=O)N2CCC[C@H]2C(=O)N[C@@H](CCCNC(=N)N)C(=O)NCC(N)=O)NC(=O)[C@H](CC(N)=O)NC1=O [d(CH2)5 [D-Phe^2,Ile^ 4]AVP, [1-(beta-mercapto-beta,beta-cyclopentamethylenepropionic acid), 2-D-phenylalanine, 4-isoleucine]-arginine vasopressin, reference compound] ([dF]FINCPRG-NH2; linker N-5 via X1) | 8.24 ± 0.08 | 7.86 ± 0.05 | 
10 | CC[C@H](C)[C@@H]1NC(=O)[C@H](Cc2ccccc2)NC(=O)[C@@H](Cc2ccccc2)NC(=O)CC2(CCCCC2)SSC[C@@H](C(=O)N2CCC[C@H]2C(=O)N[C@@H](CCCNC(=N)N)C(=O)NCC(=O)NCC(N)=O)NC(=O)[C@H](CC(N)=O)NC1=O [[1-(beta-mercapto-beta,beta-cyclopentamethylenepropionic acid), 2-D-phenylalanine, 4-isoleucine, 9-glycine]-arginine vasopressinyl glycinamide] ([dF]FINCPRGG-NH2; linker N-5 via X1) |  |  | Anti-ADH Potency pA2 ([1]; Table 4): 7.83 ± 0.04; Anti-VP Potency pA2 ([2]; Table 4, ^+ = mixed): 7.72
11 | CC(C)[C@@H]1NC(=O)[C@H](Cc2ccccc2)NC(=O)[C@@H](Cc2ccccc2)NC(=O)CC2(CCCCC2)SSC[C@@H](C(=O)N2CCC[C@H]2C(=O)N[C@@H](CCCNC(=N)N)C(=O)O)NC(=O)[C@H](CC(N)=O)NC1=O [desGly(NH2)^9 d(CH2)5 [D-Phe^2]VAVP, [1-(beta-mercapto-beta,beta-cyclopentamethylenepropionic acid), 2-D-phenylalanine, 4-valine, 9-desglycinamide]-arginine vasopressin] ([dF]FVNCPR-OH; linker N-5 via X1) | 7.75 ± 0.11 | 7.93 ± 0.05 | 
